Experimental data published in patent US20160000766A1, “HDAC INHIBITORS TO TREAT CHARCOT-MARIE-TOOTH DISEASE” (VIB VZW, priority 2010, published 2016).
Entries after “also recorded” stand apart in the source; their conditions may differ.

How the values were obtained:
[1] = tested on: symptomatic HSPB1^S135F-expressing mice; assay: Nerve conduction studies (CMAP and SNAP amplitudes) in treated mice; format: in vivo, mouse; settings: treated for three weeks; TSA 10 mg per kg, tubastatin A 25 mg per kg
Procedure: (§1) FIG. 8: HDAC6 inhibition rescues axonal transport defects and restores the CMT2 phenotype. Panels a and b: Axonal transport of mitochondria measured in DRG neurons isolated from ten-month-old HSPB1^S135F-expressing mice after 12 hours of treatment with TSA (0.4 μM), tubacin (2 μM), tubastatin A (1 μM) or an equivalent amount of DMSO. Total number of (Panel a) and number of moving (Panel b) mitochondria (per 200 seconds and per 100 μm) were quantified. n=20 to 30 cells isolated from three different mice for each condition. *P<0.05; **P<0.01; ***P<0.0001. Panels c and d: Western blots of sciatic nerve and spinal cord extracts from symptomatic eight-month-old HSPB1^S135F-expressing mice treated daily for three weeks with TSA (10 mg per kg body weight; Panel c) or tubastatin A (25 mg per kg body weight; Panel d) probed against acetylated tubulin. Equal loading was confirmed with α-tubulin staining. n=3. Panels e and f: Quantifications of optical density (OD) of acetylated tubulin on Western blots of sciatic nerve (Panel e) and spinal cord (Panel f) extracts of symptomatic HSPB1^S135F-expressing mice treated with TSA or tubastatin A. n=3. Panel g: Motor performance on an accelerating rotarod of HSPB1^S135F-expressing mice treated for three weeks with TSA or tubastatin A. Panels h and i: Effect of the TSA or tubastatin A treatments of HSPB1^S135F-expressing mice on the amplitudes of CMAPs (Panel h) or SNAPs (Panel i). n=3 to 6 mice per group. […]; **P<0.001; ***P<0.0001. One-way ANOVA was used to analyze the data in Panels a, b, and e through i. Data are presented as means±s.e.m.
Nerve conduction studies are routinely done on CMT patients to discriminate demyelinating (type 1) from axonal (type 2) forms, as well as to assess whether patients show either a mixed sensorimotor (CMT2) or a pure motor neuropathy (distal HMN). Therefore, nerve conduction studies were performed on transgenic HSPB1 mice using sub-dermal electrodes, either at the level of the gastrocnemius muscle to measure compound muscle action potentials (CMAPs), or in the distal end of the tail to record sensory nerve action potentials (SNAPs). […] The decrease in CMAP amplitudes in function of age was more pronounced in HSPB1^P182L compared to HSPB1^S135F mice as assessed by the slopes (slopeS135F=−4.66±0.32; slopeP182L=−6.23±0.93; P=0.004; FIG. 4, Panel c). CMAP latencies were unaffected, confirming the axonal nature of the motor neuropathy in both mutant HSPB1 lines (FIG. 4, Panel d).
It was also observed that the loss of acetylcholine-receptor clusters at the end plates in gastrocnemius muscle was restored (FIG. 9, Panel a) and that the level of denervation of the remaining neuromuscular junctions was decreased (FIG. 9, Panel b). […]

acetylated α-tubulin = assay: Western blots of acetylated α-tubulin in sciatic nerve and spinal cord of treated mice; format: in vivo, mouse; settings: daily for 21 days, TSA 10 mg per kg, tubastatin A 25 mg per kg; for acetylated α-tubulin amounts in peripheral nerves: sciatic nerve
Procedure: as §1
Next, symptomatic HSPB1^S135F-expressing mice were treated for 21 days with either a nonspecific or a specific HDAC6 inhibitor.

[2] = tested on: DRG neurons isolated from symptomatic HSPB1^S135F mice; assay: Axonal transport of mitochondria in cultured DRG neurons treated in vitro with HDAC inhibitors; format: cell-based, mouse; settings: for number of moving mitochondria / total numbers of mitochondria / effectiveness on total and moving mitochondria relative to TSA: 12 hours treatment; for number of moving mitochondria / total numbers of mitochondria: TSA 0.4 μM, tubacin 2 μM, tubastatin A 1 μM, vs DMSO; for effectiveness on total and moving mitochondria relative to TSA: FIG. 8, Panels a and b
Procedure: (§2) Panels a and b: Axonal transport of mitochondria was assessed in DRG neurons isolated from symptomatic (eight-month-old) HSPB1^S135F mice after 12 hours incubation with various concentrations (0, 0.25, 0.50 or 1.00 μM) of Tubastatin A. Panel a: Quantification of the total number of mitochondria at various concentrations of Tubastatin A. One-way ANOVA. P>0.05. Panel b: Quantification of the number of moving mitochondria at different concentrations of Tubastatin A. One-way ANOVA. * P<0.05; ** P<0.001; P<0.0001. Panel c: Quantification of the integrated density of the acetylated tubulin signal along neurites at various concentrations of Tubastatin A. n=25 to 30 cells/condition. One-way ANOVA. * P<0.05.
as §1
(§3) It has previously been shown that the intracellular distribution of specific cargoes, such as mutant HSPB1 itself, but also neurofilament and p150, was disturbed in cortical neurons transfected with HSPB1^P182L (ref. 12). In order to study effects of mutant HSPB1 on axonal transport, dorsal root ganglion (DRG) neurons from adult transgenic mice were isolated and analyzed mitochondrial transport in these neurons after two days in culture. Mitochondrial movement was visualized by loading DRG neurons with a selective mitochondrial marker (MITOTRAcKER®) and by live video imaging (FIG. 6, Panel a). Kymographs resulting from time compression of video images were used to quantify the total number of mitochondria present in the neurites and to discriminate antero- and retrogradely moving from stationary mitochondria (FIG. 6, Panel a, right-side panels).
Treatment of DRG neurons isolated from symptomatic HSPB1^[…]-expressing mice with TSA, tubacin or tubastatin A increased total numbers of mitochondria FIG. 8, Panel a) and restored the number of moving mitochondria (FIG. 8, Panel b).

[3] = tested on: DRG neurons isolated from symptomatic HSPB1^S135F-expressing mice; assay: Ex vivo axonal transport of mitochondria in DRG neurons isolated from treated mice; design: species or system mouse; settings: after three weeks of in vivo treatment
Procedure: (§4) FIG. 9: TSA or tubastatin A treatment leads to muscle reinnervation and rescues axonal transport defects. Panels a and b: Effect of vehicle (DMSO), TSA or tubastatin A treatment on the innervation level of the gastrocnemius muscle in symptomatic, eight-month-old HSPB1^S135F-expressing mice. The number of visible neuromuscular junctions (NMJs) per axon in each field of view (Panel a) and the relative quantity of denervated neuromuscular junctions (Panel b) were determined after staining gastrocnemius muscle with antibodies against α-bungarotoxin and neurofilament heavy chain. n=2 or 3 mice per condition. ***P<0.0001. Panels c and d: Axonal transport of mitochondria measured in cultured DRG neurons isolated from symptomatic HSPB1^S135F-expressing mice after three weeks of treatment with TSA or tubastatin A. Total number (Panel c) and number of moving mitochondria (Panel d) were quantified (per 200 seconds and 100 μm). n=20 to 25 cells isolated from three different mice in each condition. *P<0.05; ***P<0.0001. One-way ANOVA was used to analyze the data. Tukey's HSD test was used for post hoc analysis in Panels a through d. Data are presented as means±s.e.m.
as §3
Finally, we measured ex vivo axonal transport in DRG neurons isolated from treated mice.

[4] = tested on: symptomatic HSPB1^S135F-expressing mice; assay: Innervation level of the gastrocnemius muscle (neuromuscular junctions) in treated mice; format: in vivo, mouse; settings: treated for three weeks; eight-month-old mice
Procedure: as §4
(§5) It was also observed that the loss of acetylcholine-receptor clusters at the end plates in gastrocnemius muscle was restored (FIG. 9, Panel a) and that the level of denervation of the remaining neuromuscular junctions was decreased (FIG. 9, Panel b). These observations indicate that increasing acetylated α-tubulin abundance in peripheral nerves leads to re-innervation of muscles.

[5] = tested on: symptomatic HSPB1^S135F-expressing mice; assay: Motor performance on accelerating rotarod of treated HSPB1^S135F-expressing mice; format: in vivo, mouse; settings: for motor performance (accelerating rotarod): treated for three weeks, TSA 10 mg per kg, tubastatin A 25 mg per kg; for CMT2 phenotype at the behavioral and electrophysiological levels: treatment of mutant HSPB1 mice (Example 9)
Procedure: as §1
Next, general motor performance was assessed using an accelerating rotarod. All mice could stay on the rotarod (300 seconds) until the age of six months. From that age on, both mutant HSPB1 lines started to fail on the rotarod test and a progressive reduction in performance was observed over time (P<0.0001; FIG. 1, Panel c).
as §5

acetylated tubulin = assay: Acetylated tubulin signal along neurites of cultured DRG neurons; format: cell-based, mouse; settings: 12 hours incubation; 0, 0.25, 0.50 or 1.00 μM
Procedure: as §2

## CC(/C=C/C(=O)NO)=C\[C@@H](C)C(=O)c1ccc(N(C)C)cc1 [TSA, Trichostatin A]
[1]
  CMAP amplitudes: increased
  SNAP amplitudes: increased
Acetylated α-tubulin
  acetylated α-tubulin amounts in spinal cord: also increased
  overall α-tubulin abundance: did not affect
  acetylated α-tubulin amounts in peripheral nerves: significant increase
[2]
  number of moving mitochondria: restored
  total numbers of mitochondria: increased
[3]
  number of moving mitochondria (ex vivo): increased significantly
[4]
  level of denervation of the remaining neuromuscular junctions: decreased
  loss of acetylcholine-receptor clusters at the end plates in gastrocnemius muscle: restored
[5]
  motor performance (accelerating rotarod): significantly increased
  CMT2 phenotype at the behavioral and electrophysiological levels: partially restored

## O=C(CCCCCCC(=O)Nc1ccc([C@H]2O[C@@H](CSc3nc(-c4ccccc4)c(-c4ccccc4)o3)C[C@@H](c3ccc(CO)cc3)O2)cc1)NO [tubacin]
[2]
  effectiveness on total and moving mitochondria relative to TSA: more effective compared to TSA
  number of moving mitochondria: restored
  total numbers of mitochondria: increased

## CN1CCc2c(c3ccccc3n2Cc2ccc(C(=O)NO)cc2)C1 [tubastatin A]
[1]
  CMAP amplitudes: increased
  SNAP amplitudes: increased
Acetylated α-tubulin
  overall α-tubulin abundance: did not affect
  acetylated α-tubulin amounts in peripheral nerves: significant increase
[2]; 12 hours incubation, 0, 0.25, 0.50 or 1.00 μM, eight-month-old HSPB1^S135F mice
  axonal transport of mitochondria, dose dependence: dose-dependently rescued
[2]
  effectiveness on total and moving mitochondria relative to TSA: more effective compared to TSA
  number of moving mitochondria: restored
  total numbers of mitochondria: increased
[3]
  mitochondrial motility, overall rescue and comparison with TSA (ex vivo): more effective than TSA; also recorded: complete rescue
  number of moving mitochondria (ex vivo): increased significantly
  total number of mitochondria (ex vivo): increased
Acetylated tubulin
  acetyl-tubulin levels in vitro (integrated density along neurites): increased
[4]
  level of denervation of the remaining neuromuscular junctions: decreased
  loss of acetylcholine-receptor clusters at the end plates in gastrocnemius muscle: restored
[5]
  motor performance (accelerating rotarod): significantly increased
  CMT2 phenotype at the behavioral and electrophysiological levels: partially restored
